“Also recorded” adds a separate entry of the source. Read-outs that look alike come from different tables or passages of the source.
Tests used:
[1] = system: Balb/c and C57black/6 mice; assay: Murine immunization with PorA and splenocyte proliferation assay; type: in vivo, mouse; conditions: splenocytes from Balb/c mice immunized with P1.5-1, 2-2; data not shown
MB71.5 T cells = assay: PorA specific human proliferation assay with MB71.5 T cells; type: cell-based; conditions: FIG. 17A; region 4 18-mer peptides
Experimental: (§1) For P.69 Pertactin specific human proliferation assays, 10^5 PBMC were incubated in complete medium at 150 µl/well in the absence or presence of the relevant peptide(s), at 1 or 10 μM at 37° C. in a 5% CO2 atmosphere. For PorA specific human proliferation assays, 10^5 PBMC or 2×10^4 MB71.5 T cells were incubated in complete medium at 150 μl/well in the absence or presence of the relevant peptide(s), peptide pool or PorAs rP1.7-2.4, P1.5-2.10, P1.7.16, P1.19.15, or P1.22.14 at the indicated concentrations at 37° C. in a 5% CO2 atmosphere. At day 4, 100-μl volumes were removed for the cytokine determinations. Then 0.5 μCi (18.5 kBq) ^3H-thymidine (Amersham, USA) was added to the culture 18 hours before harvesting the cells. Determination of CPM and calculation of the results were performed as for the proliferation assay of immune splenocytes. Results are expressed as SI±SD from at least triplicate wells. The region 4 specific T cell line MB71.5 was generated by repetitive in vitro restimulation of MB71 PBMC with 0.5 μg/ml rP1.5-2.1 in complete medium.

HLA-A2 [2] = target: T1, HLA-A2 (Homo sapiens, UniProt P04439, D140Y/D185E/D98H/E176V/E277Q/G131W/G231S/I119V/I121R/I166T/I218V/L300P/L318F/N151K/N90K/P208A/P217A/Q86G/Q94H/R138H/R169H/T345S); type: cell-based; conditions: MV-infected WH cells, HLA-A2 ligands, standard LCMS
PBMC = assay: P.69 Pertactin specific human proliferation assay (in vitro restimulation of PBMC with synthetic peptides); type: cell-based; conditions: PBMC from a panel of healthy adult donors, synthetic standards
Experimental: as §1
We investigated the immunogenicity of the two Bordetella pertussis P.69 Pertactin epitope regions in humans by in vitro restimulation of PBMC from a panel of healthy adult donors with synthetic standards representing the epitopes.

HLA-A2 [3] = target: T1, HLA-A2; type: cell-based; conditions: human MDDC, HLA-A2 ligandome; from intensity ratio of native and singly labelled epitope
[4] = approach A (subtractive analysis)

## SGSVQFVPAQNSKSAYTP [S011-25, synthetic 18-mer, P1.5-2.10 region 4 variant]
[1]
  Response of splenocytes to region 4 peptides: responded
MB71.5 T cells
  Proliferation of MB71.5 T cells with autologous PBMC pulsed with synthetic peptides: proliferated; also recorded: recognizing

## KLWESPQEI [SEQ ID NO: 4]
HLA-A2 [2]; approach B (isotope labelling)
  Abundance (copies/cell): 85 copies/cell

## QLPEATFMV (listed as Measles virus) [SEQ ID NO: 2]
HLA-A2 [2]; [4]
  Abundance (copies/cell): 1,500 copies/cell

## KLWESPQEI [SEQ ID NO: 1]
HLA-A2 [2]; [4]
  Abundance (copies/cell): >100,000 copies/cell
HLA-A2 [2]; approach A (subtractive analysis), listed as MV-C84-92
  Abundance (copies/cell): > 100,000 copies/cell

## GLASFILTI [SEQ ID NO: 6]
HLA-A2 [2]; approach B (isotope labelling)
  Abundance (copies/cell): 150 copies/cell

## ASTLWYAESNALSKRLG
PBMC
  immune recognition observed in donors: at least 2 donors

## PEFSGFSGSVQFVPAQNS [S011-24, synthetic 18-mer, P1.5-2.10 region 4 variant]
[1]
  Response of splenocytes to region 4 peptides: responded
MB71.5 T cells
  Proliferation of MB71.5 T cells with autologous PBMC pulsed with synthetic peptides: proliferated; also recorded: recognizing

## LMIDRPYVL [SEQ ID NO: 3]
HLA-A2 [2]; [4]
  Abundance (copies/cell): 150 copies/cell

## VVSEVDIAKAD (listed as Homo sapiens) [SEQ ID NO: 52]
HLA-A2 [3]
  degree of upregulation due to the influenza virus infection: 16
